Measurements published in publication PMC5438973 (Frontiers in Psychiatry, 2017).

What was measured:
Male, Wistar rats = assay: Deprivation-induced drinking; assay type: in vivo, rat; conditions: 18 h water deprivation, 5.6 mg/kg
Experimental: Male, Wistar rats (different from those rats used in the schedule-induced polydipsia studies) were used. They were 320 ± 15 g at the initiation of this study. Water was removed from their home cage for 18 h after which water bottles were presented to each rat in an individual housing cage in a quiet room for 60 min. The weight of the water bottle before and after the 60 min period was measured to the nearest 0.1 g. Six to eight rats were studied per dose. It is noted that this deprivation period is considered stressful. After the experiment, the animals were returned to their living cages with continuous access to food and water.

h5-HT7 = target: T1, h5-HT7 (Homo sapiens, UniProt P34969); assay: Radioligand binding, human cloned h5-HT7
T1 construct: expressed in transfected cells
T1 sequence (P34969 whole entry): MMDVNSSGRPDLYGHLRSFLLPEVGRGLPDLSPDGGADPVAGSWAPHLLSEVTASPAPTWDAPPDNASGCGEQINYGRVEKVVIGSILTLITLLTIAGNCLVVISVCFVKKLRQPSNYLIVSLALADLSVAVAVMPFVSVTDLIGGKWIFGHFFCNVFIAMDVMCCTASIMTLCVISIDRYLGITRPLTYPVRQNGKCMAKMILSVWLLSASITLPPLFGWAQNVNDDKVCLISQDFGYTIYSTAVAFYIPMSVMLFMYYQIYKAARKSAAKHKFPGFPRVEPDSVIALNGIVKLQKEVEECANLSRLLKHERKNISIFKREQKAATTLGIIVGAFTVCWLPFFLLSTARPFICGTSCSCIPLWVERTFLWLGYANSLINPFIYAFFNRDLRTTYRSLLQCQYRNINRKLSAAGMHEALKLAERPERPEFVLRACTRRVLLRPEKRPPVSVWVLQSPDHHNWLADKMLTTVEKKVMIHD
Experimental: (§1) Binding affinities at the serotonin receptors were determined by standard radioligand-binding methods using human cloned receptors as reported in the literature ([14], [15]).

h5-HT1D = target: T2, h5-HT1D (Homo sapiens, UniProt P28221); assay: Radioligand binding, human cloned h5-HT1D; conditions: agonist radioligand, read-out: Affinity, Mean
T2 construct: expressed in transfected cells
Experimental: as §1

D4.4 = target: T3, D4.4 (Homo sapiens, UniProt P21917); assay: CEREP broad receptor screening panel; assay type: binding; conditions: CPD 1 10 µM (table title), duplicate
T3 construct: CEREP
T3 sequence (P21917 whole entry): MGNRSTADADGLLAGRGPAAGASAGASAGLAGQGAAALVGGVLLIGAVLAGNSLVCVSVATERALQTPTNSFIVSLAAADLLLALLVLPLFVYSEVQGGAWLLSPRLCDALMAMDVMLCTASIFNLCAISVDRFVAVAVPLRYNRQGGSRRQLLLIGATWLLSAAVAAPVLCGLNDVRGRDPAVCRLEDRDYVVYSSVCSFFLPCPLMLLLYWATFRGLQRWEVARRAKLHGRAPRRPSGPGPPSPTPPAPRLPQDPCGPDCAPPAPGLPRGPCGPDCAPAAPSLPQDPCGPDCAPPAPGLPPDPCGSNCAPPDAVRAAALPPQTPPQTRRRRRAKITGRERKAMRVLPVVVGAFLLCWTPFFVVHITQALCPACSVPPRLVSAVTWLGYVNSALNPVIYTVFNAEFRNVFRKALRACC
Experimental: (§2) Additional selectivity assessment of CPD 1 was performed at CEREP. Methods are available for the multiple assays utilized at http://www.cerep.fr/cerep/users/pages/catalog/assay/catalog.asp. The specific ligand binding to the receptors is defined as the difference between the total binding and the non-specific binding determined in the presence of an excess of unlabeled ligand.

β2 = target: T4, β2 (Homo sapiens, UniProt P07550); assay: CEREP broad receptor screening panel; assay type: binding; conditions: CPD 1 10 µM (table title), duplicate
T4 construct: CEREP
T4 sequence (P07550 whole entry): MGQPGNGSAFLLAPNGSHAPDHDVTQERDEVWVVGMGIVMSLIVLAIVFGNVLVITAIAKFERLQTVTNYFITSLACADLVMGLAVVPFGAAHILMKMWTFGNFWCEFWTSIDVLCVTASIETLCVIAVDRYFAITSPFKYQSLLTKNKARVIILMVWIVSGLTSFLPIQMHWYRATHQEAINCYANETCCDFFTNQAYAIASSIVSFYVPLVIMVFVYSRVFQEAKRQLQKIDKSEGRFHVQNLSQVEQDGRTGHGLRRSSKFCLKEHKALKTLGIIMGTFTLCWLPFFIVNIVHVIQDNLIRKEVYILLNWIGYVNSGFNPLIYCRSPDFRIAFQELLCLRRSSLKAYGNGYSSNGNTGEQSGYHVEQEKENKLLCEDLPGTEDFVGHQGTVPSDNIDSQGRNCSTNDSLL
Experimental: as §2

D1 = target: T5, D1 (Homo sapiens, UniProt P21728); assay: CEREP broad receptor screening panel; assay type: binding; conditions: CPD 1 10 µM (table title), duplicate
T5 construct: CEREP
T5 sequence (P21728 whole entry): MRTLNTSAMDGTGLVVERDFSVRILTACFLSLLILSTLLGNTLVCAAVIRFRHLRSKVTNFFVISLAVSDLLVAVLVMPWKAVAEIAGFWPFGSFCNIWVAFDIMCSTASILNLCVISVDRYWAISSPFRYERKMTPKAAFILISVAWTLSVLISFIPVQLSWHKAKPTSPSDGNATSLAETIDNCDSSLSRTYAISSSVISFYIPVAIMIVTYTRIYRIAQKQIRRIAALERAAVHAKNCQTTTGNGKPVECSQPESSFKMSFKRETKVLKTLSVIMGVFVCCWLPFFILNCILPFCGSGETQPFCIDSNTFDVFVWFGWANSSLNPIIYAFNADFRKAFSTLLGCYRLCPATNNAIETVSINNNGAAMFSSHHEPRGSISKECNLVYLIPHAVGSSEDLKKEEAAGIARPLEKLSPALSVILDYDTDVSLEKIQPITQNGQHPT
Experimental: as §2

NE transporter = target: T6, NE transporter (Homo sapiens, UniProt P23975); assay: CEREP broad receptor screening panel; assay type: binding; conditions: CPD 1 10 µM (table title), duplicate
T6 construct: CEREP (contract screening)
T6 sequence (P23975 whole entry): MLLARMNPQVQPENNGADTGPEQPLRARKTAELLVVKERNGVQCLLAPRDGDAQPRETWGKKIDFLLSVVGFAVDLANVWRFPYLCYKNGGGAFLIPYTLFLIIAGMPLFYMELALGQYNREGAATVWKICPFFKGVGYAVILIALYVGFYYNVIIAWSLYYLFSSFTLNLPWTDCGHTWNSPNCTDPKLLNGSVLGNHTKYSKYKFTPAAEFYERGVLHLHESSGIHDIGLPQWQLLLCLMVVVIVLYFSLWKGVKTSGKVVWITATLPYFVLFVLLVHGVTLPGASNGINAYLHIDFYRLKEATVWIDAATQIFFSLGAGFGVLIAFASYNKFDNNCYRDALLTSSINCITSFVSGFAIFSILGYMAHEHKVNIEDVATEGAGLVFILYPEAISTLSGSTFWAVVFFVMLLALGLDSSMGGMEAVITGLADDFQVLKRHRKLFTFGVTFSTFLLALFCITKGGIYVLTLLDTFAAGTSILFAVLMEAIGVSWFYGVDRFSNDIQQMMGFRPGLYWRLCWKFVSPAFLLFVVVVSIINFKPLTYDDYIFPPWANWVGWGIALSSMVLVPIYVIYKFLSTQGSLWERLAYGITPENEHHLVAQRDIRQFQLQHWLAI
Experimental: as §2

H2 = target: T7, H2 (Homo sapiens, UniProt P25021); assay: CEREP broad receptor screening panel; assay type: binding; conditions: CPD 1 10 µM (table title), duplicate
T7 construct: CEREP
Experimental: as §2

M3 = target: T8, M3 (Homo sapiens, UniProt P20309); assay: CEREP broad receptor screening panel; assay type: binding; conditions: CPD 1 10 µM (table title), duplicate
T8 construct: CEREP (contract screening)
T8 sequence (P20309 whole entry): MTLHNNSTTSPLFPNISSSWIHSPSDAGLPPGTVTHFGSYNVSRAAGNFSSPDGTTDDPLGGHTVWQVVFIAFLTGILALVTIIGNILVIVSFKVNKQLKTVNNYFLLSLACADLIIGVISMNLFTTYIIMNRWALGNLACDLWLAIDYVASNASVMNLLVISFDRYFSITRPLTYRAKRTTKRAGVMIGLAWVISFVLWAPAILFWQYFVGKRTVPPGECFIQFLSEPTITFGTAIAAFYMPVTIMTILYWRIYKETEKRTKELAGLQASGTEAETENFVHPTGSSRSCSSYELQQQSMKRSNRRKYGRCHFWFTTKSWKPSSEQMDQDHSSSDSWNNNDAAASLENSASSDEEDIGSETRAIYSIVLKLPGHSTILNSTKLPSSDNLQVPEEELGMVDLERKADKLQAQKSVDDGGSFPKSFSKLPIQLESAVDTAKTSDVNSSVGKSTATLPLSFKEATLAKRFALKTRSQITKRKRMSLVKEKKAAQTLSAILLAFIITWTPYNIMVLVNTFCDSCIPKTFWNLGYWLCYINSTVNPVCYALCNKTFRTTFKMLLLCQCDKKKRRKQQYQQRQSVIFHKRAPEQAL
Experimental: as §2

D2s = target: T9, D2s (Homo sapiens, UniProt P14416); assay: CEREP broad receptor screening panel; assay type: binding; conditions: CPD 1 10 µM (table title), duplicate
T9 construct: CEREP
T9 sequence (P14416 1-414 isoform P14416-2): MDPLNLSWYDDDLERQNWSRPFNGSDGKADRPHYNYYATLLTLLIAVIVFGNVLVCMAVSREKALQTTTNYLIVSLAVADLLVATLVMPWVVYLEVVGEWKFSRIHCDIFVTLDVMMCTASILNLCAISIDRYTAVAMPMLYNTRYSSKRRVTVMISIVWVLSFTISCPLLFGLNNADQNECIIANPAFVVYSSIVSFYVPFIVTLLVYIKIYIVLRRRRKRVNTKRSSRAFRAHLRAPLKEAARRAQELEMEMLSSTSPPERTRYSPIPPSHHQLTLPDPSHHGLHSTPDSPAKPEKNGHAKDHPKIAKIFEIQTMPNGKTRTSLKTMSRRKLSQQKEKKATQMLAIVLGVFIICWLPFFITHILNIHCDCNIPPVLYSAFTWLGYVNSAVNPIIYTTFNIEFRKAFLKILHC
Experimental: as §2

α2 = assay: CEREP broad receptor screening panel; assay type: binding; conditions: CPD 1 10 mM (table title), duplicate
Experimental: as §2

σ = assay: CEREP broad receptor screening panel; assay type: binding; conditions: CPD 1 10 mM (table title), duplicate
Experimental: as §2

D5 = target: T10, D5 (Homo sapiens, UniProt P21918); assay: CEREP broad receptor screening panel; assay type: binding; conditions: CPD 1 10 µM (table title), duplicate
T10 construct: CEREP
T10 sequence (P21918 whole entry): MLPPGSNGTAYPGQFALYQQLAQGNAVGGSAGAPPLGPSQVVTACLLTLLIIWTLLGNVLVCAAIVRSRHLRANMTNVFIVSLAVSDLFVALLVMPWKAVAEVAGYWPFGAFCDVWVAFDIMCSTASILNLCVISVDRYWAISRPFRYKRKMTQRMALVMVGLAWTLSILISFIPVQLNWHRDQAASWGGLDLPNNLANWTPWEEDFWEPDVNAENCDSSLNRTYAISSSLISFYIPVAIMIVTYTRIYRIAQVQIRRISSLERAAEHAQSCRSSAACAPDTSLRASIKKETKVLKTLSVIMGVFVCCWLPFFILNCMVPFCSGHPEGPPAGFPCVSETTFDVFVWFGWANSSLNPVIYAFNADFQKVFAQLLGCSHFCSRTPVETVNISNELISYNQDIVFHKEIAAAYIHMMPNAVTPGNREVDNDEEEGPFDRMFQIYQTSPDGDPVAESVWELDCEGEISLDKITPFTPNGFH
Experimental: as §2

M1 = target: T11, M1 (Homo sapiens, UniProt P11229); assay: CEREP broad receptor screening panel; assay type: binding; conditions: CPD 1 10 µM (table title), duplicate
T11 construct: CEREP
Experimental: as §2

Na+ Channel = assay: CEREP broad receptor screening panel; assay type: binding; conditions: CPD 1 10 mM (table title), duplicate
Experimental: as §2

D3 = target: T12, D3 (Homo sapiens, UniProt P35462); assay: CEREP broad receptor screening panel; assay type: binding; conditions: CPD 1 10 µM (table title), duplicate
T12 construct: CEREP
Experimental: as §2

H1 = target: T13, H1 (Homo sapiens, UniProt P35367); assay: CEREP broad receptor screening panel; assay type: binding; conditions: CPD 1 10 µM (table title), duplicate
T13 construct: CEREP
T13 sequence (P35367 whole entry): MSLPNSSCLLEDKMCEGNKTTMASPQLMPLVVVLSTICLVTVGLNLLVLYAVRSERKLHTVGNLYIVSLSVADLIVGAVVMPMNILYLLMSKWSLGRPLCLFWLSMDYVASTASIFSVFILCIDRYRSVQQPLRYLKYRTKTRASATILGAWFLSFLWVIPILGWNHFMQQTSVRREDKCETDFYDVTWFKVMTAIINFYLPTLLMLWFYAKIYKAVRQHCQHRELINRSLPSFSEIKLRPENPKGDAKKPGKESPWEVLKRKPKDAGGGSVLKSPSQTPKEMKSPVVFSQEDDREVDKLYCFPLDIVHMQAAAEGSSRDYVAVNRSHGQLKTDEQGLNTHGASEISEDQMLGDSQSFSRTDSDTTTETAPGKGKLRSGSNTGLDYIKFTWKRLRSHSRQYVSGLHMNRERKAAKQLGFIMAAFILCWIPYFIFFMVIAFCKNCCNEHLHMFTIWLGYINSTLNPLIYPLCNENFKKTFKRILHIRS
Experimental: as §2

h5-HT1A = target: T14, h5-HT1A (Homo sapiens, UniProt P08908); assay: Radioligand binding, human cloned h5-HT1A; conditions: agonist radioligand, read-out: Affinity, Mean
T14 construct: expressed in transfected cells
Experimental: as §1

h5-HT2B = target: T15, h5-HT2B (Homo sapiens, UniProt P41595); assay: Radioligand binding, human cloned h5-HT2B
T15 construct: expressed in transfected cells; host or cells: AV12 cells
T15 sequence (P41595 whole entry): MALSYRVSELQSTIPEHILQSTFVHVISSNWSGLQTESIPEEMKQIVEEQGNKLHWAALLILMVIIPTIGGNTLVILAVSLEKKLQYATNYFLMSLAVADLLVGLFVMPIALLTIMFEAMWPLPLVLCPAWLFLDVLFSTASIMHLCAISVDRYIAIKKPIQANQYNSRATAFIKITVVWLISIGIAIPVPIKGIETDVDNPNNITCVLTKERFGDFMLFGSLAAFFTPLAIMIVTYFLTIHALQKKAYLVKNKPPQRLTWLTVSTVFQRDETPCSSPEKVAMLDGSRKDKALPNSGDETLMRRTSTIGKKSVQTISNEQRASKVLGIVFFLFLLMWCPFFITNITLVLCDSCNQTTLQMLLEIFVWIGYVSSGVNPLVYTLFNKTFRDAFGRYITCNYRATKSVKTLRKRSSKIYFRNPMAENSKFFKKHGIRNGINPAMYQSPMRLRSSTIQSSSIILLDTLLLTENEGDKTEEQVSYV
Experimental: as §1

[1] = 10 mg/kg, 5 days of consecutive dosing

Q: `C[C@H]1CN(c2ccc(C(F)(F)F)c3ccoc23)CCN1` [CPD 1, (3S)-3-methyl-1-[4-(trifluoromethyl)-7-benzofuranyl]-piperazine] was tested. Which “Reduction of deprivation-induced drinking” value (Male, Wistar rats) did it give?
A: 50%

Q: And the Ki (h5-HT7; agonist radioligand, h5-HT7, read-out: Affinity, Mean)?
A: > 2 µM

Q: What about the inhibition at 2 µM (h5-HT7; at a concentration of 2 µM) of the same compound?
A: < 50%

Q: What about the Ki (h5-HT1D) of the same compound?
A: 0.296 µM

Q: And the “Effect on marble-burying compared to vehicle over five consecutive days” value (Male, NIH Swiss mice; [1])?
A: significantly decreased

Q: What about the “Tolerance to suppressant effect on marble-burying with repeated dosing” value (Male, NIH Swiss mice; [1]) of the same compound?
A: did not produce tolerance

Q: And the “Marble-burying, minimal effective dose” value (Male, NIH Swiss mice; 12/dose group)?
A: 10 milligrams per kilogram

Q: And the inhibition at 10 µM (D4.4)?
A: 105%

Q: What about the inhibition at 10 µM (β2) of the same compound?
A: 104%

Q: What about the inhibition at 10 µM (D1) of the same compound?
A: 94%

Q: What about the inhibition at 10 µM (NE transporter) of the same compound?
A: 74%

Q: What about the inhibition at 10 µM (H2) of the same compound?
A: 70%

Q: And the inhibition at 10 µM (M3)?
A: 76%

Q: And the inhibition at 10 µM (D2s)?
A: 61%

Q: What about the “% Inhibition” value (α2) of the same compound?
A: 70%

Q: What about the “% Inhibition” value (σ) of the same compound?
A: 100%

Q: What about the inhibition at 10 µM (D5) of the same compound?
A: 69%

Q: What about the inhibition at 10 µM (M1) of the same compound?
A: 56%

Q: And the “% Inhibition” value (Na+ Channel)?
A: 101%

Q: And the inhibition at 10 µM (D3)?
A: 82%

Q: And the inhibition at 10 µM (H1)?
A: 93%

Q: What about the Ki (h5-HT1A) of the same compound?
A: 0.205 µM

Q: And the Ki (h5-HT2B; agonist radioligand, h5-HT2B, read-out: Affinity, Mean)?
A: 0.104 µM

Q: And the “selectivity for h5-HT2C over h5-HT2B receptors” value (h5-HT2B; binding affinities)?
A: 50 fold
